Results on one compound are retold here after patent US20240309018A1, “THIAZOLE-LACTAM-SPIROHETEROCYCLIC COMPOUNDS AND APPLICATIONS THEREOF” (D3 BIO (WUXI) CO., LTD, priority 2021, published 2024).

For one series, the system named is HT29 tumor cells. Briefly: In vitro cell proliferation inhibition (CellTiterGlo). It is filed as cell-based. The settings on record: Homo sapiens, HT-29. The method, then: The ability of the compound to inhibit the proliferation of HT29 tumor cells was measured.
The assay compound was dissolved in 100% DMSO to prepare 10 mM stock solution.
• 1) UV light of a biological safety cabin was turned on, and 30 minutes were counted down; • 2) In a 37° C. water bath, RPMI1640 medium and trypsin were preheated; • 3) After completion of the UV irradiation, the biological safety cabin was opened. The preheated medium, trypsin and phosphate buffered saline (PBS), etc. were wiped with alcohol and placed in the biological safety cabin; • 4) HT29 cells were removed from the incubator, and the old medium was removed in biological safety cabin. 10 ml of PBS was added. The mixture was shaken gently, and then PBS was removed; • 5) 1.5 ml of preheated 0.25% trypsin was added. […] The signal value was then detected. The data were analyzed using XL-Fit, and the IC50 of each compound was calculated.
A general note: ATP-based viability assays read luminescence as a measure of living cells.

The nature of series [1]: In vivo PK study in SD rats. The arrangement: species or system rat. Conditions: male SD rats. The method, then:
Male SD rats were used as assay animals. After a single administration, the plasma concentration of the compound was measured and the pharmacokinetic behavior was evaluated.
Six healthy adult male SD rats were selected, wherein 3 rats were in an intravenous injection group and 3 rats were in an oral group. The vehicle in the intravenous injection group was 5% DMSO+95% (20% HP-β-CD). The compound to be assayed was mixed with an appropriate amount of vehicle for intravenous injection, vortexed and sonicated to prepare a clear solution of 0.2 mg/mL. The clear solution was filtered by a microporous membrane, and then ready for use. The vehicle in the oral group was 5% DMSO+95% (20% HP-β-CD). The compound to be assayed was mixed with the vehicle, vortexed and sonicated to prepare a solution of 1 mg/mL. SD rats were administered 1 mg/kg intravenously or 10 mg/kg orally, and then whole blood was collected for a certain period. Plasma was prepared. The drug concentration was analyzed by LC-MS/MS method, and the pharmacokinetic parameters were calculated by Phoenix WinNonlin software (Pharsight, USA).

Series [2] can be described thus: In vivo PK study in cynomolgus monkeys. Details: species or system cynomolgus monkey. Conditions: male cynomolgus monkeys. The method, then: Male cynomolgus monkeys were used as assay animals. After a single administration, the plasma concentration of the compound was measured and the pharmacokinetic behavior was evaluated.
Five healthy adult male cynomolgus monkeys were selected, wherein 2 animals were in an intravenous injection group, and 3 animals were in an oral group. The vehicle in the intravenous injection group was 5% DMSO+95% (20% HP-β-CD). The compound to be assayed was mixed with an appropriate amount of vehicle for intravenous injection, and dissolved with stirring to prepare a clear solution of 0.4 mg/mL. The clear solution was filtered by a microporous membrane, and then ready for use. The vehicle in the oral group was 5% DMSO+95% (20% HP-β-CD). The compound to be assayed was mixed with the vehicle, and dissolved with stirring to prepare a solution of 0.3 mg/mL. Cynomolgus monkeys were administered 1 mg/kg intravenously or 3 mg/kg orally, and then whole blood was collected for a certain period. Plasma was prepared. The drug concentration was analyzed by LC-MS/MS method, and the pharmacokinetic parameters were calculated by Phoenix WinNonlin software (Pharsight, USA).

In another series the test system is canine plasma albumin. Briefly: Plasma protein binding (ultracentrifugation), canine. Further: tested at 0.2 µM. It is filed as in vitro ADME. The method, then:
The binding degree of the assay compound to human/mouse/rat/canine/monkey plasma albumin was studied.
• 1) Matrix preparation: on the day of the assay, plasma was thawed in cold water and centrifuged at 3220 rpm for 5 min to remove all clots. The pH of the resulting plasma was measured and adjusted to 7.4±0.1 using 1% phosphoric acid or IN sodium hydroxide as needed. • 2) Dilution procedure for the assay compound: the assay compound was dissolved in dimethyl sulfoxide (DMSO) to prepare stock solutions with concentrations of 10 mM and 2 mM, respectively. A 40 μM working solution was prepared by diluting 2 μL of stock solution (2 mM) with 98 μL of DMSO. A 400 μM working solution of the control compound was prepared by diluting 10 μL of stock solution with 240 μL of DMSO. The working solution of the compound (5 μL) was mixed well with a blank matrix (995 μL) at a ratio of 1:200 to prepare a loading matrix.
• a) An equal volume of 30 μL of loading matrix (n=2) was transferred to a sample collection plate to prepare a time 0 (TO) sample for residue determination. The sample was immediately matched with the corresponding blank buffer to a final volume of 60 μL, and the volume ratio of plasma to buffer in each well was 1:1. […] The mixture was centrifuged at 4000 rpm for 20 min and 100 μL of supernatant from each sample was analyzed by LC-MS/MS.

pIC50: −log10 of the molar value.

As a reminder, the pIC50 is −log10 of the IC50, conventionally taken in molar units. One may read the half-life as how long it takes for the measured level to halve. As a reminder, the bioavailability is the share of a dose that reaches the circulation, judged against a reference dose that is usually intravenous. Usually Cmax stands for the highest concentration seen after dosing. Take `Cc1cccc(CN2C(=O)c3nc(-c4nc(Nc5ccnn5C)ncc4C)sc3C23COC3)n1` [WX001]: the pIC50 in the series on HT29 tumor cells is 7.18. Also, the “Oral DNAUC” value in series [1] (10 mg/kg orally, AUCPO/Dose) is 1445.79 nM · h/mpk; in series [2] (3 mg/kg orally, AUCPO/Dose), 1152.35 nM · h/mpk. Further, the clearance in series [1] (rat, plasma, intravenous, 1 mg/kg intravenously or 10 mg/kg orally) was determined as 13.4 mL/min/kg; in series [2] (cynomolgus monkey, plasma, intravenous, 1 mg/kg intravenously or 3 mg/kg orally), 16.1 mL/min/kg. Besides, the Vd in series [1] (rat, plasma, intravenous, 1 mg/kg intravenously or 10 mg/kg orally, read-out: Vdss) was 1.08 L/kg; in series [2] (cynomolgus monkey, plasma, intravenous, 1 mg/kg intravenously or 3 mg/kg orally, read-out: Vdss), 1.98 L/kg. Also, the half-life in series [1] (rat, plasma, 1 mg/kg intravenously or 10 mg/kg orally) was 226 min; in series [2] (cynomolgus monkey, plasma, 1 mg/kg intravenously or 3 mg/kg orally), 145 min. For the same compound, the bioavailability turned out to be 49% in series [1] (rat, plasma, 1 mg/kg intravenously, 10 mg/kg orally, oral bioavailability) and 50% in series [2] (cynomolgus monkey, plasma, 1 mg/kg intravenously, 3 mg/kg orally, oral bioavailability). Further, the Cmax came out at 2500 nM in series [1] (rat, single dose, 1 mg/kg intravenously or 10 mg/kg orally, plasma) and 921 nM in series [2] (cynomolgus monkey, single dose, 1 mg/kg intravenously or 3 mg/kg orally, plasma). In the series on canine plasma albumin, the “Plasma protein binding rate (unbound %)” value was determined as 14.3%.
